Results reported in publication PMC4200789, “Design, Synthesis and Biological Evaluation of Sulfamide and Triazole Benzodiazepines as Novel p53-MDM2 Inhibitors” (International Journal of Molecular Sciences, 2014).
Like-named read-outs stand apart in the source and are kept apart here.

Columns and labels:
[1] = target: MDM2 binding domain (1–118) / PMDM6-F peptide (p53-MDM2) (Homo sapiens, UniProt Q00987); assay: fluorescence polarization (FP) p53-MDM2 binding assay
Procedure: A well-established fluorescence polarization (FP) binding assay was performed to measure the inhibitory activity (Ki) of designed compounds. […] The two phenyl rings of (R)-7c were located in the Phe19 and Trp23 pockets respectively and the propargyl group was partly inserted into the Leu26 pocket.
The dose-dependent binding experiments were carried out with serial dilution in DMSO of compounds. […] The Ki values were determined from a plot using nonlinear least-squares analysis. And curve fitting was performed using GraphPad Prism software.

A549 (wild-type p53) = assay: in vitro antitumor activity, MTT; assay type: cell-based; conditions: Homo sapiens, read-out: IC50 A549 (wt-p53)
Procedure: (§1) To investigate the in vitro antiproliferative activity of the designed p53-MDM2 inhibitors, four human tumor cell lines, namely U-2 OS (wild-type p53), A549 (wild-type p53), Saos-2 (p53 null), and NCI-H1299 (p53 null), were chosen for assaying.
(§2) The cellular growth inhibitory activity was determined using four human cancer cell lines [U-2 OS (wild-type p53), A549 (wild-type p53), Saos-2 (p53 null), and NCI-H1299 (p53 null)]. 5–6 × 10^4 cells per well were plated in 96-well plates. After culturing for 24 h, test compounds were added onto triplicate wells with different concentrations and 0.1% DMSO for control. After 72 h of incubation, 20 μL of MTT (3-[4,5-dimethylthiazol-2-yl]-2,5-diphenyltetrazoliumbromide) solution (5 mg/mL) was added to each well, and after the samples were shaken for 1min the plate was incubated further for 4 h at 37 °C. […] were dissolved with 100 μL of DMSO. The absorbance (OD) was quantitated with microplate using Biotek Synergy H2 at 570 nm (BioTek, Winooski, VT, USA). Wells containing no drugs were used as blanks.

NCI-H1299 (p53 null) = assay: in vitro antitumor activity, MTT; assay type: cell-based; conditions: Homo sapiens, read-out: IC50 NCI-H1299 (p53 null)
Procedure: as §1, §2

Saos-2 (p53 null) = assay: in vitro antitumor activity, MTT; assay type: cell-based; conditions: Homo sapiens, read-out: IC50 Saos-2 (p53 null)
Procedure: as §1, §2

U-2 OS (wild-type p53) = assay: in vitro antitumor activity, MTT; assay type: cell-based, human; conditions: for IC50: Homo sapiens, U2OS, 72 h, read-out: IC50 U-2 OS (wt-p53)
Procedure: as §1, §2

[2] = system: four human tumor cell lines (U-2 OS, A549, Saos-2, NCI-H1299); assay: in vitro antitumor activity, MTT, four cell lines together; assay type: cell-based
Procedure: as §1, §2

[3] = set-up: method as in PMID 16630722, PMID 16600594, PMID 16290148; conditions: cited from earlier work
[4] = FP binding assay, MDM2 (1–118) 10 nM, PMDM6-F 10 nM, read-out: Ki

Sequence of MDM2 binding domain (1–118) / PMDM6-F peptide (p53-MDM2) (Q00987 1-118): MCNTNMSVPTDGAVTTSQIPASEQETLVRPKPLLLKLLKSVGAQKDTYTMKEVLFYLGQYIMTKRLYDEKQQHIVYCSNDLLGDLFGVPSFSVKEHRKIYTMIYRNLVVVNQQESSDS

SMILES | Ki [1, 4] | IC50 (A549 (wild-type p53); A549, MTT, 72 h) | IC50 (NCI-H1299 (p53 null); NCI-H1299, MTT, 72 h) | IC50 (Saos-2 (p53 null); SAOS-2, MTT, 72 h) | IC50 (U-2 OS (wild-type p53); MTT) | IC50 (U-2 OS (wild-type p53)) | further results
C#CCN1C(=O)C(c2ccc(Cl)cc2)N(CC#C)S(=O)(=O)c2ccccc21 (stereo not drawn) [Compound 7a, 3-(4-Chlorophenyl)-2,5-di(prop-2-yn-1-yl)-2,3-dihydrobenzo[f][1,2,5]thiadiazepin-4(5H)-one 1,1-dioxide] | 0.43 µM | > 100 µM | > 100 µM | > 100 µM | > 100 µM |  | 
C#CCN1C(c2ccc(Cl)cc2)C(=O)N(C=C=C)c2ccccc2S1(=O)=O (stereo not drawn) [Compound 7b, 3-(4-Chlorophenyl)-2-(prop-2-yn-1-yl)-5-(propa-1,2-dien-1-yl)-2,3-dihydrobenzo[f][1,2,5]thiadiazepin-4(5H)-one 1,1-dioxide] | 0.36 µM | > 100 µM | > 100 µM | > 100 µM | > 100 µM |  | 
C#CCN1C(c2ccc(Cl)cc2)C(=O)Nc2ccccc2S1(=O)=O (stereo not drawn) [Compound 7c, 3-(4-Chlorophenyl)-2-(prop-2-yn-1-yl)-2,3-dihydrobenzo[f][1,2,5]thiadiazepin-4(5H)-one 1,1-dioxide] | 0.26 µM | > 100 µM | > 100 µM | > 100 µM | > 100 µM |  | 
N#CCN1C(c2ccc(Cl)cc2)C(=O)Nc2ccccc2S1(=O)=O (stereo not drawn) [Compound 7d, 2-(3-(4-Chlorophenyl)-1,1-dioxido-4-oxo-4,5-dihydrobenzo[f][1,2,5]thiadiazepin-2(3H)-yl)acetonitrile] | > 100 µM | 92.3 µM | > 100 µM | > 100 µM | > 100 µM |  | 
O=C1Nc2ccccc2S(=O)(=O)N(Cc2cccc(F)c2)C1c1ccc(Cl)cc1 (stereo not drawn) [Compound 7e, 3-(4-Chlorophenyl)-2-(3-fluorobenzyl)-2,3-dihydrobenzo[f][1,2,5]thiadiazepin-4(5H)-one 1,1-dioxide] | > 100 µM | > 100 µM | > 100 µM | > 100 µM | 90.5 µM |  | 
O=C1Nc2ccccc2S(=O)(=O)N(Cc2c(F)cccc2F)C1c1ccc(Cl)cc1 (stereo not drawn) [Compound 7f, 3-(4-Chlorophenyl)-2-(2,6-difluorobenzyl)-2,3-dihydrobenzo[f][1,2,5]thiadiazepin-4(5H)-one 1,1-dioxide] | 78 µM | > 100 µM | > 100 µM | > 100 µM | > 100 µM |  | 
O=C1Nc2ccccc2S(=O)(=O)N(Cc2ccccc2)C1c1ccc(Cl)cc1 (stereo not drawn) [Compound 7g, 2-Benzyl-3-(4-chlorophenyl)-2,3-dihydrobenzo[f][1,2,5]thiadiazepin-4(5H)-one 1,1-dioxide] | 8.14 µM | > 100 µM | > 100 µM | > 100 µM | > 100 µM |  | 
O=C1Nc2ccccc2S(=O)(=O)N=C1c1ccc(Cl)cc1 [Compound 8, 3-(4-Chlorophenyl)benzo[f][1,2,5]thiadiazepin-4(5H)-one 1,1-dioxide] | 11.9 µM | > 100 µM | > 100 µM | > 100 µM | > 100 µM |  | p53-MDM2 inhibitory activity (in words) ([1]; FP binding assay): dramatic decrease of the inhibitory activity
O=C1Nc2ccc(Cl)cc2C(c2ccccc2)=NC1c1ccc(Cl)cc1 (stereo not drawn) [Compound 13, 7-Chloro-3-(4-chlorophenyl)-5-phenyl-1H-benzo[e][1,4]diazepin-2(3H)-one] |  |  |  |  |  | 3.12 µM | Ki [1]: 0.2 µM; IC50 (A549 (wild-type p53); A549, 72 h): 9.16 µM; IC50 (NCI-H1299 (p53 null); NCI-H1299, 72 h): 6.11 µM; IC50 (Saos-2 (p53 null); SAOS-2, 72 h): 3.01 µM
S=C1Nc2ccc(Cl)cc2C(c2ccccc2)=NC1c1ccc(Cl)cc1 (stereo not drawn) [Compound 14, 7-Chloro-3-(4-chlorophenyl)-5-phenyl-1H-benzo[e][1,4]diazepine-2(3H)-thione] |  |  |  |  |  | 5.31 µM | Ki [1]: 8.76 µM; IC50 (A549 (wild-type p53); A549, 72 h): 24.1 µM; IC50 (NCI-H1299 (p53 null); NCI-H1299, 72 h): 15.6 µM; IC50 (Saos-2 (p53 null); SAOS-2, 72 h): 3.67 µM
Clc1ccc(C2N=C(c3ccccc3)c3cc(Cl)ccc3-n3cnnc32)cc1 (stereo not drawn) [Compound 16, 8-Chloro-4-(4-chlorophenyl)-6-phenyl-4H-benzo[f][1,2,4]] |  |  |  |  |  | 4.17 µM | Ki [1]: 1.22 µM; IC50 (A549 (wild-type p53); A549, 72 h): 7.62 µM; IC50 (NCI-H1299 (p53 null); NCI-H1299, 72 h): 5.5 µM; IC50 (Saos-2 (p53 null); SAOS-2, 72 h): 3.55 µM; antiproliferative activity against U-2 OS relative to nutlin-3 (U-2 OS (wild-type p53); better than nutlin-3): about 4 fold
Clc1ccc(C2NC(c3ccccc3)c3cc(Cl)ccc3-n3cnnc32)cc1 (stereo not drawn) [Compound 17, 8-Chloro-4-(4-chlorophenyl)-6-phenyl-5,6-dihydro-4H-benzo[f][1,2,4]triazolo[4,3-a][1,4]diazepine] |  |  |  |  |  | 34 µM | Ki [1]: 2.8 µM; IC50 (A549 (wild-type p53); A549, 72 h): 26.8 µM; IC50 (NCI-H1299 (p53 null); NCI-H1299, 72 h): 34.6 µM; IC50 (Saos-2 (p53 null); SAOS-2, 72 h): 24.8 µM; in vitro antitumor activity (in words) [2]: poor activity
COc1ccc(C2=N[C@@H](c3ccc(Cl)cc3)[C@@H](c3ccc(Cl)cc3)N2C(=O)N2CCNC(=O)C2)c(OC(C)C)c1 [Nutlin-3, reference compound] |  |  |  |  |  | 16.3 µM | 
O=C(O)[C@H](c1ccc(Cl)cc1)N1C(=O)c2cc(I)ccc2NC(=O)[C@@H]1c1ccc(Cl)cc1 [TDP222669] |  |  |  |  |  |  | bioavailability [3]: limited bioavailability; in vivo clearance [3]: rapid in vivo clearance
